{"source": "patent US20180201594A1", "about": "“Compound pac-1 or salt thereof and pharmaceutical composition comprising same” (priority 2015, published 2018)", "key": {"in vivo": {"assay": "in vivo", "assay_type": "in vivo", "conditions": "both sexes, ICR, mouse, in vivo, po", "method": "(§1) Experimental material: ZYS-1\n(§2) Experimental animals and feeding conditions: ICR mice, half male and half female. Body weight 20±2 g, provided by Beijing Weitonglihua Experimental Animal Technology Co., Ltd., SPF grade feeding, certificate: SCXK (Beijing) 2006-0009. Particulate feed for mouse breeding was provided by Beijing Ke'ao Xieli Feed Co., Ltd. Animals were housed in barrier-level (Grade 2) animal lab in Beijing Anzhen Hospital, fluorescent lighting, 12 h light and dark cycle, room temperature 22˜24 ? , humidity 40-47%, air supply 10-12 times/h, Laboratory license number: SYXK (Beijing) 2005-0028. Mice were housed in clear plastic boxes with 5 per cage separated by gender.\n(§3) Preparation method of test drug: A white powder of ZYS-1 was placed in a mortar to be finely ground. The drug was accurately weighed before use, which was formulated with 0.5% CMC-Na to reach the desired concentration.\n(§4) Animals grouping: After fasting (except for water) for 11 h, according to body weight, animals were randomly divided into groups of 10 with 5 males and 5 females. There were 8 groups in total. […]. One-time intragastric administration was used in the experiment. The negative control group was orally administered an equal volume of 0.5% CMC-Na. The animals started feeding at 3 hours after administration.\n(§5) Observed indicators: immediately after administration, the observation of the responses of the animals to drugs (such as: general performance, respiration, activity, with or without convulsions, righting reflex, pain reflex, response to external stimuli and other indicators) was started. After observing and recording the symptom of toxic reaction, the time and duration of toxicity, recovery time, and the time of animal death. After the animal was dead, it was immediately grossly dissected, visually observing each of the main organs (heart, liver, spleen, lung and kidney, stomach) to see if there was congestion, increased volume, hardens, discoloration. The survival animals were observed and recorded day by day whether there was delayed toxicity reaction and delayed death within 7 days, and weigh and feed the animals once every 2 days. After finishing the 7 day's observation, the survival animals were grossly dissected and the situations of the main organs were observed. LD50 was calculated according to the number of animal deaths in each group."}, "ICR mice": {"tested_on": "ICR mice", "assay": "in vivo", "assay_type": "in vivo", "method": "as §1, §2, §3, §4, §5"}, "HT-1080 cells": {"tested_on": "HT-1080 cells", "assay": "HT-1080 cell invasion (Transwell, matrigel)", "assay_type": "cell-based, human", "method": "The matrigel was thawed at 4° C. overnight and diluted with serum-free medium precooled at 4° ? t 1:2. 30 μL of the diluted matrigel was added vertically in the center of the bottom of the upper chamber, allowed to stand at r.m. for 20 min, and then incubated at 37° C. for 60 min. It was observed under the microscope until gelling, hydrated with the serum-free medium for use. The treated tumor cells with drugs for 48 h were digested and collected, and then the cells were suspended with serum free medium. The cell intensity was adjusted into 2.5×10^5 cells/mL, and kept cultured in the incubator for another 24 h. The upper chamber was taken, with methanol fixation for 30 min, dyed with Giemsa stain for 30 min, rinsed with clean water twice. The cells on the bottom membrane surface of the upper chamber were carefully wiped off with a wet cotton swab, dried in the air. With the bottom up, they were transferred onto glass slide and sealed with neutral gum. Under the microscope, nine random fields were taken and the transmembrane cells therein were counted. The average values were statistically calculated."}, "XIAP": {"tested_on": "XIAP", "assay": "XIAP protein expression in HGC-27 cells (immunofluorescence)", "assay_type": "cell-based", "conditions": "n = 6", "method": "The sterilized cell transfer membrane was taken and placed into a 24-well plate, which was seeded with 1 mL (1×10^5 cells/mL) cell suspension, and cultured for 24 h. Drug-containing medium was added, The negative control groups and administration groups were set, with the experimental groups intervened for 24-48 h. The plate was washed with PBS, and fixed with 4% paraformaldehyde for 15 min. It was treated with 0.1% TritonX-100, and washed with PBS, blocked with 1:10 diluted normal serum blocking solution for 15 min. The plate was added 1:100 diluted primary antibody, placed at 4° C. overnight. The plate was washed with PBS, to which 1:100 diluted secondary antibodies was added and incubated at room temperature for 30 min. The plate was washed with PBS, to which 1:100 diluted SABC-FITC was added, and re-incubated at room temperature for additional 30 min. The unbound FITC was washed with PBS. We observed and taken pictures under fluorescence microscope, and analyzed the fluorescence intensity by Bioflux Montage software. 6 fields were selected randomly under microscope for each group and the integral optical density value of cells was calculated."}, "[1]": {"tested_on": "Murine Lewis lung carcinoma cell line", "assay": "Spontaneous metastatic cancer in mice (Lewis lung carcinoma)", "conditions": "for Inhibition rate of metastasis loci / Metastasis rate / Number of lung (metastasis loci) / Tumor weight / tumor inhibition rate: intragastric administration", "method": "The tumors growed to 1000 mm^3 and then were randomly divided into groups for adminstration, the groups were treated after three weeks. A total of 4 groups including ZYS-1 high, medium and low (100, 50, 25 mg/kg/d, intragastric administration) and positive control (gefitinib 100 mg/kg/d, intragastric administration) groups were set. The efficacy of ZYS-1 was evaluated in terms of general survival status (food intake, activity, hair etc.), tumor inhibition rate and metastasis inhibition rate.\nThe curve of tumor growth was plotted. On the next day after completing the treatment cycle, the animal was weighed. After collecting the blood, the animal was sacrificed. The tumor tissue was stripped, weighed, and the tumor inhibition rate was calculated. Store at −80 ? .\nMetastasis rate=Number of mice with metastasis/Total number of mice×100%\nInhibition rate of metastasis loci=(average number of metastasis loci in the control group−average number of metastasis loci in the experimental group)/average number of metastasis loci in the control group×100%"}, "[2]": {"conditions": "both, ICR, mouse, in vivo, 7 days"}, "[3]": {"conditions": "one-time intragastric administration, mice"}}, "data": [{"compound": "C=CCc1cccc(/C=N/NC(=O)CN2CCN(Cc3ccccc3)CC2)c1O", "note": "[ZYS-1, 1-Piperazineacetic acid, 4-(phenylmethyl)-2-[[2-hydroxy-3-(2-propen-1-yl)phenyl]methylene]]", "values": [{"measurement": "LD50 at 7 days", "setting": "in vivo; LD50 95% confidence limit", "result": "1090 to 2290", "unit": "mg/kg"}, {"measurement": "LD50 at 7 days", "setting": "in vivo; LD50 dose", "result": 1670, "unit": "mg/kg"}, {"measurement": "0% mortality dose", "setting": "ICR mice; [2]", "result": 343, "unit": "mg/kg"}, {"measurement": "non-significant toxic reaction dose", "setting": "ICR mice; [2]", "result": 343, "unit": "mg/kg"}, {"measurement": "neurotoxicity, ZYS-1 compared with PAC-1", "setting": "ICR mice; both, ICR, mouse, in vivo, po, 7 days", "result": "Comparing the experimental results of acute toxicity of ZYS-1 and PAC-1, it can be seen that ZYS-1 has lower neurotoxicity."}, {"measurement": "time for most survival animals to return to normal after administration", "setting": "ICR mice; [3]", "result": "≤ 12", "unit": "h"}, {"measurement": "time of death after administration (mainly)", "setting": "ICR mice; [3]", "result": "≤ 6", "unit": "h"}, {"measurement": "numbers of invasive cells", "setting": "HT-1080 cells; 2 μM and 4 μM administration groups", "result": "smaller than those from the control group"}, {"measurement": "numbers of invasive cells", "setting": "HT-1080 cells; 8 μM administration group", "result": "No cell from 8 μM administration group invaded into the lower chamber"}, {"measurement": "XIAP protein expression (integral optical density value)", "setting": "XIAP; 4 μM", "result": "38.22 ± 0.81"}, {"measurement": "XIAP protein expression (integral optical density value)", "setting": "XIAP; 8 μM", "result": "36.27 ± 1.03"}, {"measurement": "Inhibition rate of metastasis loci", "setting": "[1]; 25 mg/kg/d", "result": 54.68, "unit": "%"}, {"measurement": "Metastasis rate", "setting": "[1]; 25 mg/kg/d", "result": 100, "unit": "%"}, {"measurement": "Number of lung (metastasis loci)", "setting": "[1]; 25 mg/kg/d", "result": "6.3 ± 3.3"}, {"measurement": "Tumor weight", "setting": "[1]; 25 mg/kg/d", "result": "1.9579 ± 0.8346", "unit": "g"}, {"measurement": "tumor inhibition rate", "setting": "[1]; 25 mg/kg/d", "result": 50.63, "unit": "%"}, {"measurement": "Inhibition rate of metastasis loci", "setting": "[1]; 50 mg/kg/d", "result": 61.15, "unit": "%"}, {"measurement": "Metastasis rate", "setting": "[1]; 50 mg/kg/d", "result": 100, "unit": "%"}, {"measurement": "Number of lung (metastasis loci)", "setting": "[1]; 50 mg/kg/d", "result": "5.4 ± 2.6"}, {"measurement": "Tumor weight", "setting": "[1]; 50 mg/kg/d", "result": "1.5844 ± 0.8288", "unit": "g"}, {"measurement": "tumor inhibition rate", "setting": "[1]; 50 mg/kg/d", "result": 60.05, "unit": "%"}, {"measurement": "Metastasis rate", "setting": "[1]; 100 mg/kg/d", "result": 100, "unit": "%"}, {"measurement": "Number of lung (metastasis loci)", "setting": "[1]; 100 mg/kg/d", "result": "3.8 ± 1.9"}, {"measurement": "Tumor weight", "setting": "[1]; 100 mg/kg/d", "result": "1.0209 ± 0.7332", "unit": "g"}, {"measurement": "tumor inhibition rate", "setting": "[1]; 100 mg/kg/d", "result": 74.26, "unit": "%"}, {"measurement": "Hair Condition", "setting": "[1]; high and medium dose (100, 50 mg/kg/d), tumor-bearing mice", "result": "shiny coat"}]}]}
